How the values were obtained:
Format in all cases: biochemical
[1] = biological target: T1, BIexoHep (Bacteroides intestinalis, UniProt B3C5J6); experiment: tetrasaccharide digestion, 2-AB labelling, anion-exchange HPLC; conditions: exolytic beta-elimination; 5 pmol substrate
T1 construct: gene BACINT_00178; pET-30a(+), His-purified from E. coli BL21(DE3); crystal residues 24-864, monomer, two Ca2+
T1 sequence (B3C5J6 24-868): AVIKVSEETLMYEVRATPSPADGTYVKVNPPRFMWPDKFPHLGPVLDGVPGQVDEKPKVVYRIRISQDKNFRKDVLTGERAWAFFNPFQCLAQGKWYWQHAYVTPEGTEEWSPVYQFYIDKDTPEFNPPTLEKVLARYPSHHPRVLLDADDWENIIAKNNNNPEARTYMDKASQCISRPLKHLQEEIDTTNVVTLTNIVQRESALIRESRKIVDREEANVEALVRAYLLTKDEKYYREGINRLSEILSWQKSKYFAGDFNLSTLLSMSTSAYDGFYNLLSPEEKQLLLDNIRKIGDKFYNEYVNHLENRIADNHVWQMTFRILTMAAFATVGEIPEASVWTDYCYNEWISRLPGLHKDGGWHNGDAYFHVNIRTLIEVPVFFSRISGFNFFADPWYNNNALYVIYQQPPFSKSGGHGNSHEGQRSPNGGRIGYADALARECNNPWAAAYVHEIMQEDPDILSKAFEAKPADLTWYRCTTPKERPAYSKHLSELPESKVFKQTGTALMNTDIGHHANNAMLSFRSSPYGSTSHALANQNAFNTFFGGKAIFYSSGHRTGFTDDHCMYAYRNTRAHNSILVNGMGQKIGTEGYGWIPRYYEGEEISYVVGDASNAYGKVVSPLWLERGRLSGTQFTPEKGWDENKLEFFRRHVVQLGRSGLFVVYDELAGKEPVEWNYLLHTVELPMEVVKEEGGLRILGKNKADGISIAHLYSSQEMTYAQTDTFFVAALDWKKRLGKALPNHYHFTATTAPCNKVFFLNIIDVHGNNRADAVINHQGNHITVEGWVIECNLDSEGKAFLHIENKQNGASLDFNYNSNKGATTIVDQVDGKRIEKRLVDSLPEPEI

[2] = biological target: T2, BCexoHep (Bacteroides cellulosilyticus, UniProt A0A0P0GDH6); experiment: digestion, anion-exchange HPLC at […] nm; conditions: 5 μg fondaparinux; cleaved to ΔUA2S(1-4)GlcNS6S(OCH3) only
T2 construct: gene hepB; synthetic gene, expressed in E. coli BL21(DE3) and purified as BIexoHep
T2 sequence (A0A0P0GDH6 18-868): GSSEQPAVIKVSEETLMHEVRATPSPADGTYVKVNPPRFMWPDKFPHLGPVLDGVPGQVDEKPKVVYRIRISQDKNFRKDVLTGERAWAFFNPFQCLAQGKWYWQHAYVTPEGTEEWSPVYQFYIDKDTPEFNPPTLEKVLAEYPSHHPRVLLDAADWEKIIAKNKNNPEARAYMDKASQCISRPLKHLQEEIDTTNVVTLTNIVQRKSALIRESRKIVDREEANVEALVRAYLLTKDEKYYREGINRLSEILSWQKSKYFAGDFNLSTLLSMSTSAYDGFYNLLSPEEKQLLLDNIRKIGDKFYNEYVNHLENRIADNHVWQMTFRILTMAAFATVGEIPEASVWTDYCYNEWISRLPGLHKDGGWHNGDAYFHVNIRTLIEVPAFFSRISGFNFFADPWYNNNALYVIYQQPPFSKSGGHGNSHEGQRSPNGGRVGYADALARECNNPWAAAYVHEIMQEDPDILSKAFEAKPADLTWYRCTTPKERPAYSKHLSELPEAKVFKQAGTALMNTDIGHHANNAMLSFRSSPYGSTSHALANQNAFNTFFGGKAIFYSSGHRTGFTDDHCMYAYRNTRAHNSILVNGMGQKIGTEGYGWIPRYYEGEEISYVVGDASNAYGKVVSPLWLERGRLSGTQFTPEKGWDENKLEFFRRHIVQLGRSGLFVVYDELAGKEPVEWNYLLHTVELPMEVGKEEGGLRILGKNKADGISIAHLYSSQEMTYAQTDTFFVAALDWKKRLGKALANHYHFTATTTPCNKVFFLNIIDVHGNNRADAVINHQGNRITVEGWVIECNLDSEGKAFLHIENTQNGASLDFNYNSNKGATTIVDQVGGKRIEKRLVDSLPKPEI

[3] = biological target: T3, BTexoHep (Bacteroides thetaiotaomicron, UniProt Q89YS9); experiment: digestion, anion-exchange HPLC at […] nm; conditions: 5 μg fondaparinux; cleaved to ΔUA2S(1-4)GlcNS6S(OCH3) only
T3 construct: gene BT_4652; synthetic gene, expressed in E. coli BL21(DE3) and purified as BIexoHep
T3 sequence (Q89YS9 22-872): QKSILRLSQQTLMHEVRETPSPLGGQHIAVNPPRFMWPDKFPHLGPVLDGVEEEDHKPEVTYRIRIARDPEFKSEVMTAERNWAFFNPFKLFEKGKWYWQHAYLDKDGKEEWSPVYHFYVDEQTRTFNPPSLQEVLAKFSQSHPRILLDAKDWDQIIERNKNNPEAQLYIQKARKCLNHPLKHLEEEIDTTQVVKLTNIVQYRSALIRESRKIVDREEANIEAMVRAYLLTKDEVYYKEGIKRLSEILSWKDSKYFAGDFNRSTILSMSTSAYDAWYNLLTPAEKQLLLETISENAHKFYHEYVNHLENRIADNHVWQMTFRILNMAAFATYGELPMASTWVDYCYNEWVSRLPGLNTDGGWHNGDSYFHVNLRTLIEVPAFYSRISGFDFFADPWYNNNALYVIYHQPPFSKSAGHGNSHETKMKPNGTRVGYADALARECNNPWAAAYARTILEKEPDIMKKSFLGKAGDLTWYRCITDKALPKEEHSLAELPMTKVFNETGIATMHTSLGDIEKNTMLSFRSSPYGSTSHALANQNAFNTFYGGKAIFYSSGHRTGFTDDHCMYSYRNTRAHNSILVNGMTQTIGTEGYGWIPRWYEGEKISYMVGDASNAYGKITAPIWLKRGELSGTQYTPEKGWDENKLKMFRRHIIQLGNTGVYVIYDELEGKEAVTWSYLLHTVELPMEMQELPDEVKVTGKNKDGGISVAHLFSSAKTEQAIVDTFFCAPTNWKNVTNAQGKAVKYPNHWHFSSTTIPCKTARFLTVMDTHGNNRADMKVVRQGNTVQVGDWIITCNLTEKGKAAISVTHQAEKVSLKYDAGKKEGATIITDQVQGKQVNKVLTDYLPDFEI

[4] = biological target: T4, BFexoHep (Bacteroides finegoldii, UniProt C9L025); experiment: digestion, anion-exchange HPLC at […] nm; conditions: […] μg fondaparinux; cleaved to ΔUA2S([…]-4)GlcNS6S(OCH3) only
T4 construct: synthetic gene, expressed in E. coli BL21(DE3) and purified as BIexoHep
T4 sequence (C9L025 24-874): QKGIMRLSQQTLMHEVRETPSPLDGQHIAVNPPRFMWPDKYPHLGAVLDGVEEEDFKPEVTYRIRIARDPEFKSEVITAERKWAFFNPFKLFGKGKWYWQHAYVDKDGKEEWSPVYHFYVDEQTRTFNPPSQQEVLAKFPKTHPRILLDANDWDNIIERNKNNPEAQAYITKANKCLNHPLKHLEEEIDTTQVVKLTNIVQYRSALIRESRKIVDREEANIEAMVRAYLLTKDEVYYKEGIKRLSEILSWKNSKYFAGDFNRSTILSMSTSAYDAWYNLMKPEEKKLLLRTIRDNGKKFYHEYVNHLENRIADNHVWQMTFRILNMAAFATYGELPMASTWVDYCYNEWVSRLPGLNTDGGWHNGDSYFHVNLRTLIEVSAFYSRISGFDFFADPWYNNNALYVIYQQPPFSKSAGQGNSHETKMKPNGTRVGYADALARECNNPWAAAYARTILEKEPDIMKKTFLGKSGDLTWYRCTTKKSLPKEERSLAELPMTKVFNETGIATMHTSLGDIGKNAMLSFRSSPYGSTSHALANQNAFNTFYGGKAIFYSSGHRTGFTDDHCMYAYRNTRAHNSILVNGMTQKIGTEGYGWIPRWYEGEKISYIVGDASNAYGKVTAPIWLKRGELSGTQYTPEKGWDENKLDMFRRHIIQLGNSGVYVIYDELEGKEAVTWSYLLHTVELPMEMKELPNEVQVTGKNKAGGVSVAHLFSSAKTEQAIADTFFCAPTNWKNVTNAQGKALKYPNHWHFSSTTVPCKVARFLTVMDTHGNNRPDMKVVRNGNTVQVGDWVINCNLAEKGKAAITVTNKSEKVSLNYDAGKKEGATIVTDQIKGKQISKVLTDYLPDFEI

Compound | tetrasaccharide digestion, 2-AB labelling, anion-exchange HPLC [1] | digestion, anion-exchange HPLC at 232 nm [2] | digestion, anion-exchange HPLC at 232 nm [3] | digestion, anion-exchange HPLC at 232 nm [4]
O=C(O)C1=C[C@H](O)[C@@H](OS(=O)(=O)O)[C@H](O[C@H]2[C@H](O)[C@@H](NS(=O)(=O)O)[C@@H](O[C@H]3[C@H](O)[C@@H](O)[C@H](O[C@H]4[C@H](O)[C@@H](NS(=O)(=O)O)C(O)O[C@@H]4COS(=O)(=O)O)O[C@@H]3C(=O)O)O[C@@H]2COS(=O)(=O)O)O1 (some centres unmarked) [P4-7, ΔUA2S1-4GlcNS6S1-4GlcA1-4GlcNS6S] | all could be almost completely degraded |  |  | 
O=C(O)C1=C[C@H](O)[C@@H](OS(=O)(=O)O)[C@H](O[C@H]2[C@H](O)[C@@H](NS(=O)(=O)O)[C@@H](O[C@H]3[C@H](O)[C@@H](OS(=O)(=O)O)[C@H](O[C@H]4[C@H](O)[C@@H](NS(=O)(=O)O)C(O)O[C@@H]4COS(=O)(=O)O)O[C@H]3C(=O)O)O[C@@H]2COS(=O)(=O)O)O1 (some centres unmarked) [P4-8, ΔUA2S1-4GlcNS6S1-4IdoA2S1-4GlcNS6S] | this enzyme prefers to digest highly sulfated substrates |  |  | 
CO[C@H]1O[C@H](COS(=O)(=O)O)[C@@H](O[C@@H]2O[C@@H](C(=O)O)[C@@H](O[C@H]3O[C@H](COS(=O)(=O)O)[C@@H](O[C@@H]4O[C@H](C(=O)O)[C@@H](O[C@H]5O[C@H](COS(=O)(=O)O)[C@@H](O)[C@H](O)[C@H]5NS(=O)(=O)O)[C@H](O)[C@H]4O)[C@H](OS(=O)(=O)O)[C@H]3NS(=O)(=O)O)[C@H](O)[C@H]2OS(=O)(=O)O)[C@H](O)[C@H]1NS(=O)(=O)O [fondaparinux] |  | all these exoHepases can degrade the fondaparinux | all these exoHepases can degrade the fondaparinux | all these exoHepases can degrade the fondaparinux

From publication PMC7904915, “Discovery of exolytic heparinases and their catalytic mechanism and potential application” (Nature Communications, 2021)
